Data: ChEMBL document CHEMBL2202954, “The effect of PLC-γ2 inhibitors on the growth of human tumour cells” (2012)

Assays:
Format in all cases: functional
[1] = test system: U-251; assay: Cytotoxicity against human U251 cells assessed as cellular growth at 10 uM by SRB assay
[2] = test system: UO-31; assay: Cytotoxicity against human UO31 cells assessed as cellular growth at 10 uM by SRB assay
[3] = test system: M14; assay: Cytotoxicity against human M14 cells assessed as cellular growth at 10 uM by SRB assay
[4] = test system: HCC 2998; assay: Cytotoxicity against human HCC2998 cells assessed as cellular growth at 10 uM by SRB assay
[5] = test system: COLO 205; assay: Cytotoxicity against human COLO205 cells assessed as cellular growth at 10 uM by SRB assay
[6] = test system: SK-MEL-28; assay: Cytotoxicity against human SK-MEL-28 cells assessed as cellular growth at 10 uM by SRB assay
[7] = test system: RXF 393; assay: Cytotoxicity against human RXF393 cells assessed as cellular growth at 10 uM by SRB assay
[8] = Cytotoxicity against human NCI-ADR-RES cells assessed as cellular growth at 10 uM by SRB assay
[9] = test system: OVCAR-8; assay: Cytotoxicity against human OVCAR8 cells assessed as cellular growth at 10 uM by SRB assay
[10] = test system: MDA-MB-435; assay: Cytotoxicity against human MDA-MB-435 cells assessed as cellular growth at 10 uM by SRB assay
[11] = test system: SK-MEL-5; assay: Cytotoxicity against human SK-MEL-5 cells assessed as cellular growth at 10 uM by SRB assay
[12] = test system: LOX IMVI; assay: Cytotoxicity against human LOXIMVI cells assessed as cellular growth at 10 uM by SRB assay
[13] = test system: TK-10; assay: Cytotoxicity against human TK10 cells assessed as cellular growth at 10 uM by SRB assay
[14] = test system: MDA-MB-468; assay: Cytotoxicity against human MDA-MB-468 cells assessed as cellular growth at 10 uM by SRB assay
[15] = test system: T47D; assay: Cytotoxicity against human T47D cells assessed as cellular growth at 10 uM by SRB assay
[16] = test system: K562; assay: Cytotoxicity against human K562 cells assessed as cellular growth at 10 uM by SRB assay
[17] = test system: SW-620; assay: Cytotoxicity against human SW620 cells assessed as cellular growth at 10 uM by SRB assay
[18] = test system: SF-268; assay: Cytotoxicity against human SF268 cells assessed as cellular growth at 10 uM by SRB assay
[19] = test system: SF-295; assay: Cytotoxicity against human SF295 cells assessed as cellular growth at 10 uM by SRB assay
[20] = test system: BT-549; assay: Cytotoxicity against human BT549 cells assessed as cellular growth at 10 uM by SRB assay
[21] = test system: SF-539; assay: Cytotoxicity against human SF539 cells assessed as cellular growth at 10 uM by SRB assay
[22] = test system: SN12C; assay: Cytotoxicity against human SN12C cells assessed as cellular growth at 10 uM by SRB assay
[23] = test system: UACC-62; assay: Cytotoxicity against human UACC62 cells assessed as cellular growth at 10 uM by SRB assay
[24] = test system: CCRF-CEM; assay: Cytotoxicity against human CCRF-CEM cells assessed as cellular growth at 10 uM by SRB assay
[25] = test system: SK-MEL-2; assay: Cytotoxicity against human SK-MEL-2 cells assessed as cellular growth at 10 uM by SRB assay
[26] = test system: NCI-H226; assay: Cytotoxicity against human NCI-H226 cells assessed as cellular growth at 10 uM by SRB assay
[27] = test system: CAKI-1; assay: Cytotoxicity against human Caki1 cells assessed as cellular growth at 10 uM by SRB assay
[28] = test system: NCI-H23; assay: Cytotoxicity against human NCI-H23 cells assessed as cellular growth at 10 uM by SRB assay
[29] = test system: A498; assay: Cytotoxicity against human A498 cells assessed as cellular growth at 10 uM by SRB assay
[30] = test system: NCI-H322M; assay: Cytotoxicity against human NCI-H322M cells assessed as cellular growth at 10 uM by SRB assay
[31] = test system: PC-3; assay: Cytotoxicity against human PC3 cells assessed as cellular growth at 10 uM by SRB assay
[32] = test system: 786-0; assay: Cytotoxicity against human 786-0 cells assessed as cellular growth at 10 uM by SRB assay
[33] = test system: HCT-116; assay: Cytotoxicity against human HCT116 cells assessed as cellular growth at 10 uM by SRB assay
[34] = test system: Hs-578T; assay: Cytotoxicity against human Hs578T cells assessed as cellular growth at 10 uM by SRB assay
[35] = test system: SK-OV-3; assay: Cytotoxicity against human SKOV3 cells assessed as cellular growth at 10 uM by SRB assay
[36] = test system: NCI-H460; assay: Cytotoxicity against human NCI-H460 cells assessed as cellular growth at 10 uM by SRB assay
[37] = test system: A549; assay: Cytotoxicity against human A549 cells assessed as cellular growth at 10 uM by SRB assay
[38] = test system: HOP-62; assay: Cytotoxicity against human HOP62 cells assessed as cellular growth at 10 uM by SRB assay
[39] = test system: RPMI-8226; assay: Cytotoxicity against human RPMI8226 cells assessed as cellular growth at 10 uM by SRB assay
[40] = test system: EKVX; assay: Cytotoxicity against human EKVX cells assessed as cellular growth at 10 uM by SRB assay
[41] = test system: UACC-257; assay: Cytotoxicity against human UACC257 cells assessed as cellular growth at 10 uM by SRB assay
[42] = test system: ACHN; assay: Cytotoxicity against human ACHN cells assessed as cellular growth at 10 uM by SRB assay
[43] = test system: OVCAR-3; assay: Cytotoxicity against human OVCAR3 cells assessed as cellular growth at 10 uM by SRB assay
[44] = test system: SNB-75; assay: Cytotoxicity against human SNB75 cells assessed as cellular growth at 10 uM by SRB assay
[45] = test system: DU-145; assay: Cytotoxicity against human DU145 cells assessed as cellular growth at 10 uM by SRB assay
[46] = test system: IGROV-1; assay: Cytotoxicity against human IGROV1 cells assessed as cellular growth at 10 uM by SRB assay
[47] = test system: SNB-19; assay: Cytotoxicity against human SNB19 cells assessed as cellular growth at 10 uM by SRB assay
[48] = test system: KM12; assay: Cytotoxicity against human KM12 cells assessed as cellular growth at 10 uM by SRB assay
[49] = test system: MCF7; assay: Cytotoxicity against human MCF7 cells assessed as cellular growth at 10 uM by SRB assay
[50] = test system: Malme-3M; assay: Cytotoxicity against human MALME-3M cells assessed as cellular growth at 10 uM by SRB assay
[51] = test system: HCT-15; assay: Cytotoxicity against human HCT15 cells assessed as cellular growth at 10 uM by SRB assay
[52] = test system: NCI-H522; assay: Cytotoxicity against human NCI-H522 cells assessed as cellular growth at 10 uM by SRB assay

SMILES: O=c1/c(=C/c2ccccc2)sc2nc(-c3ccc(Cl)cc3Cl)nn12
- Activity [1]: 105.46%
- Activity [2]: 88.97%
- Activity [3]: 103.86%
- Activity [4]: 122.44%
- Activity [5]: 123.34%
- Activity [6]: 109.52%
- Activity [7]: 111.76%
- Activity [8]: 111.31%
- Activity [9]: 102.91%
- Activity [10]: 119.04%
- Activity [11]: 104.93%
- Activity [12]: 96.37%
- Activity [13]: 98.86%
- Activity [14]: 120.34%
- Activity [15]: 94.32%
- Activity [16]: 99.39%
- Activity [17]: 101.67%
- Activity [18]: 107.58%
- Activity [19]: 123.35%
- Activity [20]: 105.68%
- Activity [21]: 114.11%
- Activity [22]: 106.99%
- Activity [23]: 103%
- Activity [24]: 105.93%
- Activity [25]: 117.96%
- Activity [26]: 100.81%
- Activity [27]: 96.38%
- Activity [28]: 102.55%
- Activity [29]: 108.54%
- Activity [30]: 131.46%
- Activity [31]: 115.99%
- Activity [32]: 111.75%
- Activity [33]: 100.59%
- Activity [34]: 102.33%
- Activity [35]: 98.1%
- Activity [36]: 106.69%
- Activity [37]: 103.15%
- Activity [38]: 95.63%
- Activity [39]: 111.72%
- Activity [40]: 110.01%
- Activity [41]: 83.86%
- Activity [42]: 109.45%
- Activity [43]: 105.06%
- Activity [44]: 80.26%
- Activity [45]: 108.27%
- Activity [46]: 102.56%
- Activity [47]: 110.52%
- Activity [48]: 114.89%
- Activity [49]: 100.42%
- Activity [50]: 121.75%
- Activity [51]: 112.75%
- Activity [52]: 99.33%

SMILES: Clc1ccc(-c2nc(-c3cccs3)no2)c(Cl)c1
- Activity [1]: 90.09%
- Activity [2]: 70.88%
- Activity [3]: 100.46%
- Activity [4]: 66.03%
- Activity [5]: 106.21%
- Activity [6]: 103.74%
- Activity [7]: 107.35%
- Activity [8]: 102.9%
- Activity [9]: 97.12%
- Activity [10]: 110.83%
- Activity [11]: 83.92%
- Activity [12]: 103.49%
- Activity [13]: 71.42%
- Activity [14]: 8.37%
- Activity [15]: 51.7%
- Activity [16]: 96.15%
- Activity [17]: 88.07%
- Activity [18]: 99.25%
- Activity [19]: 107.44%
- Activity [20]: 83.02%
- Activity [21]: 107.53%
- Activity [22]: 100.86%
- Activity [23]: 88.98%
- Activity [24]: 85.99%
- Activity [25]: 122.72%
- Activity [26]: 88.68%
- Activity [27]: 81.96%
- Activity [28]: 92.64%
- Activity [29]: 110.86%
- Activity [30]: 120.06%
- Activity [31]: 83.22%
- Activity [32]: 97.42%
- Activity [33]: 94.56%
- Activity [34]: 96.13%
- Activity [35]: 93.87%
- Activity [36]: 92.07%
- Activity [37]: 91.44%
- Activity [38]: 84.92%
- Activity [39]: 86.03%
- Activity [40]: 72.63%
- Activity [41]: 76.15%
- Activity [42]: 99.79%
- Activity [43]: 99.18%
- Activity [44]: 63.47%
- Activity [45]: 99.3%
- Activity [46]: 66.78%
- Activity [47]: 104.48%
- Activity [48]: 99.27%
- Activity [49]: 29.22%
- Activity [50]: 102.62%
- Activity [51]: 73.54%
- Activity [52]: 91.42%
